Test results from patent US5298494A, “Monosaccharides having anti-proliferation and anti-inflammatory activity, compositions and uses thereof” (Greenwich Pharmaceuticals Incorporated, priority 1993, dated 1994).
Where two headings read alike, the source gives them in different places.

Legend:
[1] = test system: T lymphocytes (normal mouse spleen cells) stimulated with ConA; assay: Mouse Spleen Cell ConA Blastogenesis Assay; assay type: cell-based, mouse (C57Bl/6); conditions: Mus musculus, T-lymphocyte; for inhibition at 0.1 µg/mL: compound 0.1 ug/ml; for inhibition at 1 µg/mL: compound 1 ug/ml; for inhibition at 2.5 µg/mL: compound 2.5 ug/ml; for inhibition at 10 µg/mL: compound 10 ug/ml; for inhibition at 25 µg/mL: compound 25 ug/ml; for inhibition at 100 µg/mL: compound 100 ug/ml
[2] = test system: Interleukin 1 (IL-1) production by peritoneal macrophages; assay: IL-1 Assay: production of interleukin-1 by peritoneal macrophages (thymocyte bioassay); assay type: cell-based, mouse (C57B1/6); set-up: inhibition: dose or concentration left out as unconfirmed
Text: Interleukin 1 (IL-1) is a potent immunomodulatory cytokine that has a broad range of pro-inflammatory activities. IL-1 is known to be produced by activated accessory cells such as macrophages. Accessory cell production of IL-1 results in the activation and proliferation of T and B lymphocytes. Therefore, by inhibiting macrophage activation and production of IL-1, the activation and proliferation of the cellular effectors of inflammation can be modulated. Compounds of the invention were screened for inhibitory activity in a classical IL-1 assay. Six to 8 week old male C57B1/6 mice were purchased from Harlan Sprague Dawley. Peritoneal macrophages were elicited by the administration to mice of a single intraperitoneal injection of 0.2 ml of complete Freund's adjuvant. After 48 hours, elicited macrophages were removed from the mice by lavage with the use of Hank's balanced salt solution. […] To the macrophage cultures were added various doses of the compounds of the invention and 10 ug/ml of the macrophage activator lipopolysaccharide (to stimulate IL-1 production). Control cultures consisted of macrophages, lipopolysaccharide and culture medium containing various doses of DMSO only. […] The amount of IL-1 produced in the individual wells was determined in a bioassay for IL-1. This involved the removal of thymuses from mice less than 8 weeks of age. Thymocytes were isolated by passing each thymus through a stainless steel mesh screen. […] After 18 hours cells were harvested and radioactive incorporation (as a measure of cell proliferation) was quantitated in a liquid scintillation counter. The students t test was used to determine the significance of the difference between experimental and control values.

[3] = test system: T cell proliferation in mouse spleen cell mixed lymphocyte cultures; assay: Mixed Lymphocyte Reaction (MLR) assay; assay type: cell-based, mouse (Balb/c responder, C57B1/6 stimulator)
Text: The pharmacologic assays performed to determine the immunomodulatory effects of the experimental compounds in vitro include the Mixed Lymphocyte Reaction (MLR) and the ConA blastogenesis assay. These assays were used to determine the inhibitory effects of the compounds of the invention on T lymphocyte activation and proliferation. Since inflammation at the cellular level is characterized by T lymphocyte recruitment, activation and proliferation, these assays are appropriate to use as screens for novel compounds having therapeutic potential in the treatment of disorders in which inflammatory mechanisms are involved.
The MLR is a classical assay used to measure T cell function by studying the proliferative response of T cells which are activated in vitro by genetically disparate stimulator cells. This is accomplished by co-culturing spleen cells from two different strains of mice. Splenic T cell proliferation occurs as a result of cellular activation signals generated by the ongoing cellular interactions.
Balb/c mice were euthanised by cervical dislocation and their spleens removed. Single cell suspensions of the spleens were prepared in culture medium (hepes buffered RPMI-1640 supplemented with 10% fetal calf serum, 2mM glutamine, 500 units penicillin/ streptomycin, and 4×10^-5 M 2-mercaptoethanol) using a Teflon pestle. The cells were centrifuged at 1500 rpm and the pellets resuspended in ACT (0.15M tris, 0.14M ammonium chloride, pH 7.2) in order to lyse the red blood cells. After a 5 minute incubation in a 37 C. waterbath, the cells were resuspended in culture medium and counted. C57B1/6 spleen cells which were used as stimulator cells, were also prepared by this method. The stimulator cells were treated with 100 ug/ml of mitomycin c for 1 hour at 37 C. (to inhibit stimulatory cell proliferation) and were then washed 5 times in culture medium. The proliferative responses were measured by culturing 2.5×10^5 responder cells with 5×10^5 stimulatory cells in 96 well microtiter plates in the presence or absence of various doses of test compounds or vehicle (DMSO). Syngeneic control cultures using mitomycin c treated Balb/c spleen cells as stimulator cells were also run. All cultures were run in triplicate.
Solutions of compounds of the present invention in DMSO were prepared at a stock concentration of 120 Mm. Dilutions were made in culture medium to the following concentrations: 3, 10, 30, 100, and 300 uM. The vehicle (DMSO) was used as a negative control.
After incubation of for 5 days at 37 C. with 5% CO2, the amount of cell proliferation was measured by adding 20 ul of MTT (3-[4,5-dimethylthiazol-2-yl]-2,5diphenyl-tetrazolium bromide) (10 mg/ml in phosphate buffered saline) to each well. Plates were incubated for 4 hours at 37 C., after which 180 ul of 10% sodium dodecyl sulphate in phosphate buffered saline was added. After an overnight incubation, the optical density (OD) of each well was read on a Molecular Devices microplate reader at 570-650 nm. The results were determined by calculating the difference between the means of the allogeneic cultures and the means of the syngenic cultures for each test article concentration. Differences of the test article groups were compared to the control group and the percent change from the control was determined.

[4] = ConA 1 ug/ml, 0.01 ug/ml, read-out: % Change from Control (Table II)
[5] = ConA 1 ug/ml, compound 0.01 ug/ml, read-out: % change from control, ConA blastogenic response
[6] = ConA 1 ug/ml, read-out: % change from control, ConA blastogenic response
[7] = ConA 4 ug/ml, 0.01 ug/ml, read-out: % Change from Control (Table II)
[8] = ConA 4 ug/ml, compound 0.01 ug/ml, read-out: % change from control, ConA blastogenic response
[9] = ConA 4 ug/ml, read-out: % change from control, ConA blastogenic response

Row | SMILES | inhibition at 0.01 µg/mL [1, 4] | inhibition at 0.01 µg/mL [1, 5] | inhibition at 0.1 µg/mL [1, 6] | inhibition at 1 µg/mL [1, 6] | inhibition at 2.5 µg/mL [1, 6] | inhibition at 10 µg/mL [1, 6] | inhibition at 25 µg/mL [1, 6] | inhibition at 100 µg/mL [1, 6] | inhibition at 0.01 µg/mL [1, 7] | inhibition at 0.01 µg/mL [1, 8] | inhibition at 0.1 µg/mL [1, 9] | inhibition at 1 µg/mL [1, 9] | inhibition at 2.5 µg/mL [1, 9] | inhibition at 10 µg/mL [1, 9] | inhibition at 25 µg/mL [1, 9] | inhibition at 100 µg/mL [1, 9] | other results
1 | CCCCCC#CCOC[C@H]1O[C@@]2(OC)COC(C)(C)O[C@H]2[C@@H]1OCC#CCCCCC [Id, methyl 1,3-O-isopropylidene-4,6-di-O-(2-octynyl)-α-D-fructofuranoside] | 9% | 10% | 25% | 67% | 91% | 100% | 100% | 99% | 16% | 14% | 27% | 75% | 94% | 100% | 100% | 99% | ^3 H-Thymidine uptake by thymocytes ([2]; 0.001 ug/ml): 10,850 ± 995 cpm; ^3 H-Thymidine uptake by thymocytes ([2]; 0.01 ug/ml): 13,080 cpm; ^3 H-Thymidine uptake by thymocytes ([2]; 0.1 ug/ml): 13,190 ± 560 cpm; ^3 H-Thymidine uptake by thymocytes ([2]; 1 ug/ml): 9,880 ± 1,029 cpm; ^3 H-Thymidine uptake by thymocytes ([2]; 2.5 ug/ml): 6,400 ± 1,070 cpm; ^3 H-Thymidine uptake by thymocytes ([2]; 10 ug/ml): 3,050 ± 191 cpm; ^3 H-Thymidine uptake by thymocytes ([2]; 25 ug/ml): 2,537 ± 182 cpm; ^3 H-Thymidine uptake by thymocytes ([2]; 100 ug/ml): 1,930 cpm; inhibition at 0.001 µg/mL ([2]; Mus musculus, Peritoneal macrophage, 0.001 ug/ml, read-out: % effect on IL-1 production (thymidine uptake by thymocytes)): 0%; inhibition at 0.01 µg/mL ([2]; Mus musculus, Peritoneal macrophage, 0.01 ug/ml, read-out: % effect on IL-1 production (thymidine uptake by thymocytes)): -20%; inhibition at 0.1 µg/mL ([2]; Mus musculus, Peritoneal macrophage, 0.1 ug/ml, read-out: % effect on IL-1 production (thymidine uptake by thymocytes)): -19%; inhibition at 2.5 µg/mL ([2]; Mus musculus, Peritoneal macrophage, 2.5 ug/ml, read-out: % effect on IL-1 production (thymidine uptake by thymocytes)): 44%; inhibition at 10 µg/mL ([2]; Mus musculus, Peritoneal macrophage, 10 ug/ml, read-out: % effect on IL-1 production (thymidine uptake by thymocytes)): 70%; inhibition at 25 µg/mL ([2]; Mus musculus, Peritoneal macrophage, 25 ug/ml, read-out: % effect on IL-1 production (thymidine uptake by thymocytes)): 71%; inhibition at 100 µg/mL ([2]; Mus musculus, Peritoneal macrophage, 100 ug/ml, read-out: % effect on IL-1 production (thymidine uptake by thymocytes)): 78%; inhibition ([2]; Mus musculus, Peritoneal macrophage, read-out: % effect on IL-1 production (thymidine uptake by thymocytes)): 10%
2 | CCCCC/C=C\COC[C@H]1O[C@](COC/C=C\CCCCC)(OC)[C@@H](O)[C@@H]1O [Ig, methyl 1,6-di-O-(cis,2-octenyl)-α-D-fructofuranoside] | 3% | -10% | 10% | 4% | 11% | 87% | 84% | 99% | -7% | -12% | 9% | 5% | 20% | 73% | 77% | 100% | Mean O.D. Allogenic ([3]; 3 um): 0.412 O.D.; Mean O.D. Syngeneic ([3]; 3 um): 0.155 O.D.; Mean O.D. Allogenic ([3]; 10 um): 0.421 O.D.; Mean O.D. Syngeneic ([3]; 10 um): 0.182 O.D.; Mean O.D. Allogenic ([3]; 30 um): 0.399 O.D.; Mean O.D. Syngeneic ([3]; 30 um): 0.157 O.D.; Mean O.D. Allogenic ([3]; 100 um): 0.419 O.D.; Mean O.D. Syngeneic ([3]; 100 um): 0.173 O.D.; Mean O.D. Allogenic ([3]; 300 um): 0.474 O.D.; Mean O.D. Syngeneic ([3]; 300 um): 0.037 O.D.; inhibition at 3 µM ([3]; Mus musculus, Lymphocyte, 3 um, read-out: % Change From Control, MLR): -34%; inhibition at 10 µM ([3]; Mus musculus, Lymphocyte, 10 um, read-out: % Change From Control, MLR): -24%; inhibition at 30 µM ([3]; Mus musculus, Lymphocyte, 30 um, read-out: % Change From Control, MLR): -26%; inhibition at 100 µM ([3]; Mus musculus, Lymphocyte, 100 um, read-out: % Change From Control, MLR): -28%; inhibition at 300 µM ([3]; Mus musculus, Lymphocyte, 300 um, read-out: % Change From Control, MLR): -81%
